Test results taken from US9839708B2, “Method for treating used absorbent article” (Unicharm Corporation, priority 2012, dated 2017).

Assays:
Escherichia coli = assay: Evaluation of bactericidal function (MIC / minimum bactericidal concentration); type: cell-based; design: key: −: exhibited effects of bactericidal action; +: with the exception of the results of Comparative Examples 1 and 2; details: at the concentration used in the example; absence of growth 24 hours later
Experimental: (§1) Minimum inhibitory concentration (MIC) of the acidic electrolyzed water was measured based on the standard test method of the Japanese Society of Chemotherapy followed by confirming the absence of growth 24 hours later to evaluate the minimum bactericidal concentration and determine if bactericidal effects are present at the concentration used in the example. Minimum inhibitory concentrations (MIC) of the alkaline electrolyzed water and acidic electrolyzed water were respectively measured based on the standard test method of the Japanese Society of Chemotherapy followed by confirming the absence of growth 24 hours later to evaluate the minimum bactericidal concentration and determine if bactericidal effects are present at the concentration used in Example 2-2. Minimum inhibitory concentrations (MIC) of the acidic electrolyzed water and alkaline electrolyzed water were respectively measured based on the standard test method of the Japanese Society of Chemotherapy followed by confirming the absence of growth 24 hours later to evaluate the minimum bactericidal concentration and determine if bactericidal effects are present at the concentration used in Example 3-2. Minimum inhibitory concentration (MIC) of the tap water was measured based on the standard test method of the Japanese Society of Chemotherapy followed by confirming the absence of growth 24 hours later to evaluate the minimum bactericidal concentration and determine if bactericidal effects are present at the concentration used in the example. Minimum inhibitory concentrations (MIC) of the alkaline electrolyzed water was measured based on the standard test method of the Japanese Society of Chemotherapy followed by confirming the absence of growth 24 hours later to evaluate the minimum bactericidal concentration and determine if bactericidal effects are present at the concentration used in Comparative Example 2-2. Minimum inhibitory concentration (MIC) of the 250 ppm sodium hypochlorite was measured based on the standard test method of the Japanese Society of Chemotherapy followed by confirming the absence of growth 24 hours later to evaluate the minimum bactericidal concentration and determine if bactericidal effects are present at the concentration used in Comparative Example 3-2. Minimum inhibitory concentration (MIC) of the 500 ppm sodium hypochlorite was measured based on the standard test method of the Japanese Society of Chemotherapy followed by confirming the absence of growth 24 hours later to evaluate the minimum bactericidal concentration and determine if bactericidal effects are present at the concentration used in Comparative Example 4-2. Minimum inhibitory concentration (MIC) of the 1000 ppm sodium hypochlorite was measured based on the standard test method of the Japanese Society of Chemotherapy followed by confirming the absence of growth 24 hours later to evaluate the minimum bactericidal concentration and determine if bactericidal effects are present at the concentration used in Comparative Example 4-2.

Staphylococcus aureus = assay: as above; type: cell-based; design: key: −: exhibited effects of bactericidal action; +: with the exception of the results of Comparative Examples 1 and 2; details: at the concentration used in the example; absence of growth 24 hours later
Experimental: as §1

[1] = Residual chlorine concentration of recycled pulp (JIS K 0102 33.2); type: physicochemical; details: 5.00 g eluted into 100 ml, criterion Less than 1 ppm
Experimental: (§2) Eight commercially available disposable diapers (Moony M Size, Unicharm Corp.) that had adsorbed 200 ml of physiological saline were placed in a twin tub compact washing machine (Harebare AST-01, Alumis Co., Ltd.). 80 g of CaO (Wako Pure Chemical Industries, Ltd.) were placed in the washing tub followed by the addition of 6.5 L of acidic electrolyzed water (pH 3, generated with the ESS-ZERO Electrolyzed Water Sanitation System manufactured by Tech Corp.). After washing for 15 minutes, the liquid inside the washing tub was discharged followed by newly adding 6.5 L of acidic electrolyzed water (pH 3, formed with the ESS-ZERO Electrolyzed Water Sanitation System manufactured by Tech Corp.). After washing for 15 minutes, only the pulp that floated in the liquid in the washing tub was skimmed off followed by placing in a mesh pouch (measuring 25 cm on a side, N-No. 250HD, NBC Meshtec Inc.) and dehydrating for 5 minutes in the spin tub (dehydrator). The recycled pulp was rinsed for 15 minutes with running water (tap water) while still in the mesh pouch followed by again dehydrating for 5 minutes in the spin tub (dehydrator). The pulp was then dried for 24 hours with a hot air dryer at 105° C. Recycled pulp was obtained according to the aforementioned method.
5.00 g of pulp dried in the same manner as described above were eluted into 100 ml of physiological saline followed by measurement of the chlorine concentration thereof (JIS K 0102 33.2).
(§3) Eight commercially available disposable diapers (Moony M Size, Unicharm Corp.) that had adsorbed 200 ml of physiological saline were placed in a twin tub compact washing machine (Harebare AST-01, Alumis Co., Ltd.). 80 g of CaO (Wako Pure Chemical Industries, Ltd.) were placed in the washing tub followed by the addition of 6.5 L of alkaline electrolyzed water (pH 12, generated with the ESS-ZERO Electrolyzed Water Sanitation System manufactured by Tech Corp.). […]

[2] = Evaluation of pH of recycled pulp; type: physicochemical; details: 1.00 g dried pulp in 10 ml physiological saline; criterion pH 3.1-9.8
Experimental: as §2
1.00 g of the dried pulp was weighed out into a beaker followed by the addition of 10 ml of physiological saline. After gently stirring with a glass rod, the pulp was allowed to stand undisturbed for 10 minutes followed by measurement of the liquid inside the beaker with a pH meter (AS-212, As One Corp.).
as §3

Residual Chlorine ppm [1] [ppm]	pH of Recycled Pulp [2]	SMILES	Bactericidal Effect E. coli (Escherichia coli)	Bactericidal Effect S. aureus (Staphylococcus aureus)
1	12.2	[Na+].[O-]Cl [compound 4, sodium hypochlorite]	−	−
1	12.0	OCl [compound 5, sodium hypochlorite]	−	−
1	12.3	OCl [compound 3, sodium hypochlorite]	−	−
